This assay relates to vasopressin V2 receptors. In words: Vasopressin V2 agonist effects in normal conscious water-loaded rats. As to conditions: oral dose of 10 mg/Kg, urine collected for four hours, Sprague-Dawley (CD) rats; for Changes in Urinary Osmolality: osmolality changes expressed as percent of control; for Urine Volume (% decrease): percent decrease in urine volume vs. control. In kind it is in vivo. An excerpt:
Vasopressin V2 Agonist Effects of Test Compounds in Normal Conscious Water-Loaded Rats:
Male or female normotensive Sprague-Dawley rats (Charles River Laboratories, Inc., Kingston, NY) of 350-500 g body weight were supplied with standard rodent diet (Purina Rodent Lab. Chow 5001) and water ad libitum. On the day of test, rats were placed individually into metabolic cages equipped with devices to separate the feces from the urine and containers for collection of urine. A test compound or a reference agent was given at an oral dose of 10 mg/Kg in a volume of 10 mL/Kg. The vehicle used was 20% dimethylsulfoxide (DMSO) in 2.5% preboiled corn starch. Thirty minutes after dosing the test compound, rats were gavaged with water at 30 mL/Kg into the stomach using a feeding needle. During the test, rats were not provided with water or food. Urine was collected for four hours after dosing of the test compound. At the end of four hours, urine volume was measured. Urinary osmolality was determined using a Fiske One-Ten Osmometer (Fiske Associates, Norwood, MA, 02062) or an Advanced CRYOMATIC Osmometer, Model 3C2 (Advanced Instruments, Norwood, MA). Determinations of Na^+, K^+- and Cl^- ion were carried out using ion specific electrodes in a Beckman SYNCHRON EL-ISE Electrolyte System analyzer. The urinary osmolality should increase proportionally. In the screening test, two rats were used for each compound. If the difference in the urine volume of the two rats was greater than 50%, a third rat was used.

The structures appear in SMILES notation.

Data on 4 compounds can be found in patent EP1149104B1, “PYRROLOBENZODIAZEPINE CARBOXYAMIDE VASOPRESSIN AGONISTS” (Wyeth, priority 1999, dated 2000).

Take `Cn1ccc2cc(C(=O)N3Cc4cccn4Cc4ccccc43)ccc21` [Example 1, (5H-10,11-Dihydro-pyrrolo [2,1-c][1,4]benzodiazepin-10-yl)-(1-methyl-1H-indol-5-yl)-methanone]: the “Changes in Urinary Osmolality” value was 174% of control and the “Urine Volume (% decrease)” value is given as 66 % decrease.
For `O=C(c1ccc2c(c1)OCO2)N1Cc2cccn2Cc2ccccc21` [Example 2, Benzo[1,3]dioxol-5-yl-(5H-10,11-dihydro-pyrrolo [2,1-c][1-4]benzodiazepin-10-yl)-methanone], in that order: 41% of control and 23 % decrease.
As to `O=C(c1ccc2c(c1)CCO2)N1Cc2cccn2Cc2ccccc21` [Example 3, (2,3-Dihydro-benzofuran-5-yl)-(5H-10,11-dihydro-pyrrolo[2,1-c][1,4]benzodiazepin-10-yl)-methanone], the “Changes in Urinary Osmolality” value is on record as 10% of control and the “Urine Volume (% decrease)” value is listed as 32 % decrease.
`O=C(c1ccc2ncsc2c1)N1Cc2cccn2Cc2ccccc21` [Example 4, (Benzothiazol-6-yl)-(5H-10,11-dihydro-pyrrolo[2,1-c][1,4]benzodiazepin-10-yl)-methanone]: the “Changes in Urinary Osmolality” value was 3% of control and the “Urine Volume (% decrease)” value is 19 % decrease.
